Literature values, collected in patent publication US20240083845A1 (priority 2020, published 2024).

Key:
[1] = tested on: live virus; conditions: cited from earlier work
[2] = tested on: ten further coronavirus strains; conditions: read-out: Ki values against ten further coronavirus strains; cited from earlier work

**Q.** Which “activity in cell-based live virus assays” value [1] does the source give for PF-00835231 here?
**A.** Its value is roughly 1 µM.

**Q.** What about the Ki [2] of the same substance?
**A.** Its Ki is 0.03 to 4 nM.
